Reference: patent publication US4145444A, “Anti-inflammatory agent of benzoyl derivative” (priority 1977, dated 1979)
Read-outs that look alike come from different tables or passages of the source.

Key:
[1] = test system: thrombus; test: Inhibiting effect on thrombosis (by-pass between left juglar vein and right carotid artery, silk thread); assay type: in vivo, SD type male rates; conditions: Rattus norvegicus, read-out: Thrombosis inh.: thrombosis inhibition rate
Experimental: The inhibiting effects of the samples of the invention on thrombosis were tested by the following test method.
A 0.5 ml of 50 μ/ml of the heparin physiological saline was added through the polyethylene tube before the first blood circulation. After the blood circulation for 15 minutes, the circulation was stopped in the middle of the tubing at artery side with a pinch cock.
Then, 0.2 ml of the heparin physiological saline was added to remove the blood coagulates on the tubing wall and another new polyethylene tubing filled with the heparin solution and containing a piece of new silk thread was attached between the venous and artery tubing ends.
The blood circulation was reestablished by opening the pinch cock. After 15 minutes, the wet weight of thrombus on the silk thread was similarly measured.
In the same manner, the third circulation was performed and wet weight of thrombus measured.
The amount of thrombus was given by the equation A. [formula] Each sample was suspended in an aqueous solution of sodium carboxymethyl cellulose and the oral dose of the suspension (100 mg/kg) was performed at 5 hours before the first blood circulation.
The amount of thrombus after the oral dose of the sample was calculated in the same manner as that of control circulations.
The thrombosis inhibition rate was given by the equation B. [formula]

[2] = test system: platelet; test: Blood platelet aggregation inhibiting effect (collagen-induced); assay type: cell-based, rabbits; conditions: for inhibition at 100 µM: Oryctolagus cuniculus, Platelet, read-out: Blood platelet agg. inh.: percentage inhibition of platelet aggregation
Source text: Male rabbits (Japan original white strain 3.3 to 3.6 kg) were anesthetized with Thiopental sodium and blood was sampled from the carotid artery.

[3] = test system: male mice; test: Analgesic effect: painful stretchings following intraperitoneal 0.7% acetic acid; conditions: Mus musculus, po, read-out: Analgesic: percentage diminition of times of painful stretching
Experimental: Each sample was orally administered in the dosage of 100 mg/kg before injection of acetic acid.

[4] = test system: hind paws of male rats; test: Anti-inflammatory effect: acute carragheenin edema method; assay type: in vivo; conditions: for inhibition in vivo at 100 mg/kg: Rattus norvegicus, read-out: Anti-inf.: edema inhibition rate; for anti-inflammatory effect, inhibition rate (ED50), in words: rat, in vivo
Experimental: The edema was induced by subcutaneous injection of 1% carragheenin suspension in saline to the hind paws of male rats weighting 150 to 180 g. Each sample was orally given at the dosage of 100 mg/kg just before the inoculation of carragheenin.

[5] = 10^-4 mole, collagen inducer, rabbit PRP
[6] = 100 mg/kg oral, 5 hours before first blood circulation, rats
[7] = 100 mg/kg oral, carragheenin edema, male rats (Table 2)
[8] = 100 mg/kg oral, carragheenin edema, male rats (Table 2')

COc1ccc(C(=O)C(=O)c2ccccc2)cc1
inhibition in vivo at 100 mg/kg ([1]; po, 5 h): 18.3% | inhibition at 100 µM [2]: 20.1% | inhibition in vivo at 100 mg/kg [3]: 10.2% | inhibition in vivo at 100 mg/kg ([4]; po): 43.9%

CCCCCCc1ccc(C(=O)c2ccc(C)cc2C)cc1 [Active ingredient No. 4]
Blood platelet agg. inh.: percentage inhibition of platelet aggregation [2, 5]: 20.5%

CCCCCc1ccc(C(=O)c2ccccc2F)cc1 [Active ingredient No. 9, 2-Fluoro-4'-n-amyl-benzophenone]
anti-inflammatory effect, inhibition rate (ED50), in words [4]: especially high inhibition rate (ED50)

Cc1cc(C)c(C(=O)c2ccccc2F)c(C)c1 [Active ingredient No. 11, 2-Fluoro-2',4',6'-trimethyl-benzophenone]
anti-inflammatory effect, inhibition rate (ED50), in words [4]: especially high inhibition rate (ED50)

O=C(c1ccccc1)c1ccccc1F [Active ingredient No. 15, 2-fluorobenzophenone]
anti-inflammatory effect, inhibition rate (ED50), in words [4]: especially high inhibition rate (ED50)

CCCc1ccc(C(=O)c2ccccc2F)cc1 [compound 7]
inhibition in vivo at 100 mg/kg [1, 6]: 24.6% | inhibition at 100 µM [2, 5]: 23% | inhibition in vivo at 100 mg/kg [3]: 15% | inhibition in vivo at 100 mg/kg [4, 7]: 55.6%

CCCCc1ccc(C(=O)c2ccccc2F)cc1 [compound 8]
inhibition in vivo at 100 mg/kg [1, 6]: 38% | inhibition at 100 µM [2, 5]: 24% | inhibition in vivo at 100 mg/kg [3]: 14.8% | inhibition in vivo at 100 mg/kg [4, 7]: 82.6%

CCCCCc1ccc(C(=O)c2ccccc2F)cc1 [compound 9]
inhibition in vivo at 100 mg/kg [1, 6]: 25.3% | inhibition at 100 µM [2, 5]: 14.6% | inhibition in vivo at 100 mg/kg [3]: 15.3% | inhibition in vivo at 100 mg/kg [4, 7]: 74.6%

Cc1ccc(C(=O)c2ccccc2F)c(C)c1 [compound 10]
inhibition in vivo at 100 mg/kg [1, 6]: 29.7% | inhibition at 100 µM [2, 5]: 18.5% | inhibition in vivo at 100 mg/kg [3]: 20.3% | inhibition in vivo at 100 mg/kg [4, 7]: 47.5%

Cc1cc(C)c(C(=O)c2ccccc2F)c(C)c1 [compound 11]
inhibition in vivo at 100 mg/kg [1, 6]: 42.9% | inhibition at 100 µM [2, 5]: 16.5% | inhibition in vivo at 100 mg/kg [3]: 13.9% | inhibition in vivo at 100 mg/kg [4, 7]: 62.3%

CCc1cc(CC)c(C(=O)c2ccccc2)c(CC)c1 [compound 13]
inhibition in vivo at 100 mg/kg [1, 6]: 20.5% | inhibition at 100 µM [2, 5]: 14.3% | inhibition in vivo at 100 mg/kg [3]: 15.8% | inhibition in vivo at 100 mg/kg [4, 7]: 38.9%

Cc1cc(C)c(C(=O)c2ccc(Cl)cc2)c(C)c1 [compound 14]
inhibition in vivo at 100 mg/kg [1, 6]: 23.3% | inhibition at 100 µM [2, 5]: 18.1% | inhibition in vivo at 100 mg/kg [3]: 19.2% | inhibition in vivo at 100 mg/kg [4, 7]: 37.3%

O=C(c1ccccc1)c1ccccc1F [compound 15]
inhibition in vivo at 100 mg/kg [1, 6]: 26.5% | inhibition at 100 µM [2, 5]: 23.2% | inhibition in vivo at 100 mg/kg [3]: 18.5% | inhibition in vivo at 100 mg/kg [4, 7]: 61.4%

CCCc1ccc(CCC)c(C(=O)c2ccccc2)c1 [compound 16]
inhibition in vivo at 100 mg/kg [1, 6]: 21.5% | inhibition at 100 µM [2, 5]: 8.6% | inhibition in vivo at 100 mg/kg [3]: 12.4% | inhibition in vivo at 100 mg/kg [4, 7]: 45.2%

CCCCc1ccc(CCCC)c(C(=O)c2ccc(C)cc2)c1 [compound 17]
inhibition in vivo at 100 mg/kg [1, 6]: 19.5% | inhibition at 100 µM [2, 5]: 17.3% | inhibition in vivo at 100 mg/kg [3]: 10.3% | inhibition in vivo at 100 mg/kg [4, 7]: 36.3%

Cc1cc(C)c(C(=O)c2ccccc2)c(C)c1 [compound 30]
Blood platelet agg. inh.: percentage inhibition of platelet aggregation [2, 5]: 8.7%

O=C(c1ccccc1)c1ccc(C2CCCCC2)cc1 [compound 73]
Blood platelet agg. inh.: percentage inhibition of platelet aggregation [2, 5]: 20.3%

COc1ccc(C(=O)c2ccccc2F)cc1 [compound 116]
inhibition in vivo at 100 mg/kg [4, 8]: 59.8%

CC(C)c1ccc(C(=O)c2ccccc2F)cc1 [compound 117]
inhibition in vivo at 100 mg/kg [4, 8]: 53.3%

CC(C)Cc1ccc(C(=O)c2ccccc2F)cc1 [compound 118]
inhibition in vivo at 100 mg/kg [4, 8]: 32.7%

CCC(C)c1ccc(C(=O)c2ccccc2F)cc1 (stereo not shown) [compound 119]
inhibition in vivo at 100 mg/kg [4, 8]: 60.7%

CC(C)(C)c1ccc(C(=O)c2ccccc2F)cc1 [compound 120]
inhibition in vivo at 100 mg/kg [4, 8]: 38.3%

CCC(C)(C)c1ccc(C(=O)c2ccccc2F)cc1 [compound 122]
inhibition in vivo at 100 mg/kg [4, 8]: 39.3%

CCCCc1ccc(C(=O)c2cccc(F)c2)cc1 [compound 123]
inhibition in vivo at 100 mg/kg [4, 8]: 38.3%

CCCCCc1ccc(C(=O)c2cccc(F)c2)cc1 [compound 124]
inhibition in vivo at 100 mg/kg [4, 8]: 23.5%

Cc1cc(C)c(C(=O)c2cccc(F)c2)c(C)c1 [compound 125]
inhibition in vivo at 100 mg/kg [4, 8]: 18.1%

Cc1ccc(C(=O)c2cccc(F)c2)c(C)c1 [compound 126]
inhibition in vivo at 100 mg/kg [4, 8]: 27.7%

CCCCc1ccc(C(=O)c2ccc(F)cc2)cc1 [compound 127]
inhibition in vivo at 100 mg/kg [4, 8]: 58.8%

CCCCCc1ccc(C(=O)c2ccc(F)cc2)cc1 [compound 128]
inhibition in vivo at 100 mg/kg [4, 8]: 33.6%

CCCCCCCCc1ccc(C(=O)c2ccc(F)cc2)cc1 [compound 129]
inhibition in vivo at 100 mg/kg [4, 8]: 38.6%

Cc1ccc(C(=O)c2ccc(F)cc2)c(C)c1 [compound 130]
inhibition in vivo at 100 mg/kg [4, 8]: 37.8%

Cc1cc(C)c(C(=O)c2ccc(F)cc2)c(C)c1 [compound 131]
inhibition in vivo at 100 mg/kg [4, 8]: 33.6%

CCCc1ccc(C(=O)c2ccccc2Cl)cc1 [compound 132]
inhibition in vivo at 100 mg/kg [4, 8]: 14.9%

CCCCCc1ccc(C(=O)c2ccccc2Cl)cc1 [compound 133]
inhibition in vivo at 100 mg/kg [4, 8]: 38.3%

CCCCCCCCc1ccc(C(=O)c2ccccc2Cl)cc1 [compound 134]
inhibition in vivo at 100 mg/kg [4, 8]: 35.1%

Cc1ccc(C(=O)c2ccccc2Cl)c(C)c1 [compound 135]
inhibition in vivo at 100 mg/kg [4, 8]: 37.2%

COc1ccc(C(=O)c2ccc(Cl)cc2)cc1 [compound 136]
inhibition in vivo at 100 mg/kg [4, 8]: 13.2%

CCCCOc1ccc(C(=O)c2ccc(Cl)cc2)cc1 [compound 137]
inhibition in vivo at 100 mg/kg [4, 8]: 16.7%

CCCCCCOc1ccc(C(=O)c2ccc(Cl)cc2)cc1 [compound 138]
inhibition in vivo at 100 mg/kg [4, 8]: 12.5%

CCCc1ccc(C(=O)c2cccc(Cl)c2)cc1 [compound 139]
inhibition in vivo at 100 mg/kg [4, 8]: 11.7%

CCCCCc1ccc(C(=O)c2cccc(Cl)c2)cc1 [compound 140]
inhibition in vivo at 100 mg/kg [4, 8]: 14.9%

CCCCCCCCc1ccc(C(=O)c2cccc(Cl)c2)cc1 [compound 141]
inhibition in vivo at 100 mg/kg [4, 8]: 13.8%

CCCc1ccc(C(=O)c2ccccc2Br)cc1 [compound 142]
inhibition in vivo at 100 mg/kg [4, 8]: 38.9%

CCCCc1ccc(C(=O)c2ccccc2Br)cc1 [compound 143]
inhibition in vivo at 100 mg/kg [4, 8]: 45.4%

CCCCCc1ccc(C(=O)c2ccccc2Br)cc1 [compound 144]
inhibition in vivo at 100 mg/kg [4, 8]: 50%

CCCCCCCCc1ccc(C(=O)c2ccccc2Br)cc1 [compound 145]
inhibition in vivo at 100 mg/kg [4, 8]: 60.2%

Cc1ccc(C(=O)c2ccccc2Br)c(C)c1 [compound 146]
inhibition in vivo at 100 mg/kg [4, 8]: 23.1%

Cc1cc(C)c(C(=O)c2ccccc2Br)c(C)c1 [compound 147]
inhibition in vivo at 100 mg/kg [4, 8]: 20.4%

CCCCCCCCc1ccc(C(=O)c2cccc(Br)c2)cc1 [compound 148]
inhibition in vivo at 100 mg/kg [4, 8]: 36.3%

Cc1ccc(C(=O)c2cccc(Br)c2)c(C)c1 [compound 149]
inhibition in vivo at 100 mg/kg [4, 8]: 42.2%

CCCc1ccc(C(=O)c2ccc(Br)cc2)cc1 [compound 150]
inhibition in vivo at 100 mg/kg [4, 8]: 14%

CCCCCCCCc1ccc(C(=O)c2ccc(Br)cc2)cc1 [compound 151]
inhibition in vivo at 100 mg/kg [4, 8]: 15.3%

Cc1ccc(C(=O)c2ccc(Br)cc2)c(C)c1 [compound 152]
inhibition in vivo at 100 mg/kg [4, 8]: 22.6%

Cc1cc(C)c(C(=O)c2ccc(Br)cc2)c(C)c1 [compound 153]
inhibition in vivo at 100 mg/kg [4, 8]: 27.8%

CCCc1ccc(C(=O)c2ccccc2I)cc1 [compound 154]
inhibition in vivo at 100 mg/kg [4, 8]: 29%

CCCCc1ccc(C(=O)c2ccccc2I)cc1 [compound 155]
inhibition in vivo at 100 mg/kg [4, 8]: 31.8%

CCCCCc1ccc(C(=O)c2ccccc2I)cc1 [compound 156]
inhibition in vivo at 100 mg/kg [4, 8]: 43%

CCCCCCCCc1ccc(C(=O)c2ccccc2I)cc1 [compound 157]
inhibition in vivo at 100 mg/kg [4, 8]: 37.4%

Cc1ccc(C(=O)c2ccccc2I)c(C)c1 [compound 158]
inhibition in vivo at 100 mg/kg [4, 8]: 32.7%

Cc1cc(C)c(C(=O)c2ccccc2I)c(C)c1 [compound 159]
inhibition in vivo at 100 mg/kg [4, 8]: 15.9%

CCCCc1ccc(C(=O)c2cccc(I)c2)cc1 [compound 160]
inhibition in vivo at 100 mg/kg [4, 8]: 10.8%

CCCCCCCCc1ccc(C(=O)c2cccc(I)c2)cc1 [compound 161]
inhibition in vivo at 100 mg/kg ([4]; po): 20.9%

Cc1ccc(C(=O)c2cccc(I)c2)c(C)c1 [compound 162]
inhibition in vivo at 100 mg/kg [4, 8]: 13%

Cc1cc(C)c(C(=O)c2cccc(I)c2)c(C)c1 [compound 163]
inhibition in vivo at 100 mg/kg [4, 8]: 16.4%

CCCCCCCCc1ccc(C(=O)c2ccc(I)cc2)cc1 [compound 164]
inhibition in vivo at 100 mg/kg [4, 8]: 29%

Cc1ccc(C(=O)c2ccc(I)cc2)c(C)c1 [compound 165]
inhibition in vivo at 100 mg/kg [4, 8]: 19.2%

Cc1cc(C)c(C(=O)c2ccc(I)cc2)c(C)c1 [compound 166]
inhibition in vivo at 100 mg/kg [4, 8]: 21.5%
